# According to patent US20060287273A1, “Methods and reagents for inhibiting cell proliferation” (priority 2005, published 2006):
# System: MDA-MB-435S cells
# Assay: TUNEL assay analyzed by FACS (apoptosis)
# Type: cell-based, human
# Conditions: 48 hours post-transfection; staurosporine 1 uM; versus control siRNA
# Description: To examine this possibility, we utilized the TUNEL assay, which measures the appearance of free DNA ends that are the result of DNA fragmentation that occurs in the latter stages of apoptosis. MDA-MB-435S cells in 6 well dishes were transfected with the corresponding siRNA or treated with 1 uM staurosporine. 48 hours post-transfection, any detached cells were combined with cells detached using trypsin and the cells were washed, fixed with paraformaldehyde, subjected to TUNEL assay, and analyzed by FACS. […] Cells to be assayed were trypsinized, washed twice with PBS, followed by fixation for 20 min. in 1.5% paraformaldehyde in PBS at 4° C. with gentle mixing. The cells were then washed twice with PBS, suspended in 70% ethanol at 4° C., and stored at −20° C. until assayed. When assayed, the cells were washed twice with PBS and then resuspended in 50 μl of Tunel assay buffer consisting of 100 mM potassium cacodylate (pH 7.2), 2 mM CoCl2, 0.2 mM dithiotheitol, 3.3 nM fluorescein-conjugated dUTP, 13 nM DATP and 11 units of terminal deoxynucleotidyl transferase for 90 minutes at 37° C. The cells were then washed twice with PBS and analyzed by FACS sorting.
compound,measurement,value
CN[C@@H]1C[C@H]2O[C@@](C)([C@@H]1OC)n1c3ccccc3c3c4c(c5c6ccccc6n2c5c31)C(=O)NC4 [Staurosporine],"apoptosis, incorporation of fluorescein-labeled dUTP",most dramatic increase in apoptotic cells
